According to patent US20240165244A1 (Prelude Therapeutics Incorporated, priority 2022, published 2024):

Columns and labels:
[1] = molecular target: T1, SMARCA2 (Homo sapiens, UniProt P51531); assay: SMARCA2 HiBiT degradation assay in HeLa cells; type: cell-based; conditions: 18 hours, highest concentration 10 μM
T1 construct: SMARCA2-HiBiT knock-in Hela monoclonal cell (CS302366); host or cells: HeLa monoclonal cells with heterozygous HiBiT knock-in at the endogenous SMARCA2 locus
How it was run: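 HeLa cells carrying a heterozygous C-terminal HiBiT knock-in on SMARCA2 were seeded at 2500 cells/well. They were treated with 3-fold dilution series, top concentration 10 μM, for 18 h at 37 °C. Remaining SMARCA2-HiBiT was measured by Nano-Glo HiBiT lytic luminescence after 30-60 min at RT, followed by curve fitting.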

[2] = molecular target: T2, SMARCA4 (Homo sapiens, UniProt P51532); assay: SMARCA4 HiBiT degradation assay in HeLa cells; type: cell-based; conditions: 18 hours, highest concentration 10 μM
T2 construct: SMARCA4-HiBiT knock-in Hela monoclonal cell (CS3023226); host or cells: HeLa monoclonal cells with heterozygous HiBiT knock-in at the endogenous SMARCA4 locus
T2 sequence (P51532 whole entry): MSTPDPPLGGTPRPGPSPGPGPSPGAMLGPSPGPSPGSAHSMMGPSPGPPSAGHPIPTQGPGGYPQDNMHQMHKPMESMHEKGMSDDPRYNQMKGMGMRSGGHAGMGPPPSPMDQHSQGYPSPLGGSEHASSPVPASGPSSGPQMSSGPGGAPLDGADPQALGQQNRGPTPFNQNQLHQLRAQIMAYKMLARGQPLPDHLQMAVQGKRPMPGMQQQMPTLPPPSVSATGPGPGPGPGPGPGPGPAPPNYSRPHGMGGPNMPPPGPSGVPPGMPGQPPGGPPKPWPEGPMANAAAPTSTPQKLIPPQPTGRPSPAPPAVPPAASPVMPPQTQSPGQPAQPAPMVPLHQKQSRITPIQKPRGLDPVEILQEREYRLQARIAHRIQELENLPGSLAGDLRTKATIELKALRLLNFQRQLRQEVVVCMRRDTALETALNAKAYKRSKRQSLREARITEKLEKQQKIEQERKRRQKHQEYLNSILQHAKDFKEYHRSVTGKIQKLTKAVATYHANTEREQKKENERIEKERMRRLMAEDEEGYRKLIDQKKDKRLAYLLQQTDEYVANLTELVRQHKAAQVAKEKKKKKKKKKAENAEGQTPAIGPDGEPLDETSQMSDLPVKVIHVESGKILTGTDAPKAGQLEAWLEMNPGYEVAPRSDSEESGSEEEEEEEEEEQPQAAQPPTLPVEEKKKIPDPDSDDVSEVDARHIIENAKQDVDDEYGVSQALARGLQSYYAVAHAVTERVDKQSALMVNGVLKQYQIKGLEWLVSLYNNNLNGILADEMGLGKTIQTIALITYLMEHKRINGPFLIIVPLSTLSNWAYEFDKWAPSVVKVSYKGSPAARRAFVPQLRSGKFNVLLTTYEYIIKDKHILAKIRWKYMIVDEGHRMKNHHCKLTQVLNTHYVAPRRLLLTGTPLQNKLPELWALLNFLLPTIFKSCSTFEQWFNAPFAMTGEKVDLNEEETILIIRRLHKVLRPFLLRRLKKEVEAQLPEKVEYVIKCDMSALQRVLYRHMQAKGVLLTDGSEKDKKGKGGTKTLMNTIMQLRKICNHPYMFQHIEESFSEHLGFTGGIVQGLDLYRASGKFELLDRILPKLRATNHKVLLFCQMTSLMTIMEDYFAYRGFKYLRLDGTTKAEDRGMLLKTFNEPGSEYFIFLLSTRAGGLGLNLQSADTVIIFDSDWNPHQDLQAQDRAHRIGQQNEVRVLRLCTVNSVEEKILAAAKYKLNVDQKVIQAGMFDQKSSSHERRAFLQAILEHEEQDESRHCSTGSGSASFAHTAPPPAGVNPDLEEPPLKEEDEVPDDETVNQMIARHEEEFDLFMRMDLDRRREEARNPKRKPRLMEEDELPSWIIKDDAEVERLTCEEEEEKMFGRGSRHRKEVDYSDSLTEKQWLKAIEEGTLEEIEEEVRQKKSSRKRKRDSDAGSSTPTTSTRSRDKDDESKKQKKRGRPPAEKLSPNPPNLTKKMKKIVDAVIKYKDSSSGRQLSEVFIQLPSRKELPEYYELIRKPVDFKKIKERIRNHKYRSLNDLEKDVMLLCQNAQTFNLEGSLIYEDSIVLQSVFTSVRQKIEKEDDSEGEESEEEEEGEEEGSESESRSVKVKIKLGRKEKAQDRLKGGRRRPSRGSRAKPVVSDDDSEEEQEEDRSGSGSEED
How it was run: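 HeLa monoclonal cells with HiBiT knocked into SMARCA4 were seeded at 2500 cells/well, dosed with compound and incubated 18 hours at 37° C. HiBiT signal reported remaining SMARCA4 protein, and values came from curve fitting.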

T1 sequence (P51531 whole entry): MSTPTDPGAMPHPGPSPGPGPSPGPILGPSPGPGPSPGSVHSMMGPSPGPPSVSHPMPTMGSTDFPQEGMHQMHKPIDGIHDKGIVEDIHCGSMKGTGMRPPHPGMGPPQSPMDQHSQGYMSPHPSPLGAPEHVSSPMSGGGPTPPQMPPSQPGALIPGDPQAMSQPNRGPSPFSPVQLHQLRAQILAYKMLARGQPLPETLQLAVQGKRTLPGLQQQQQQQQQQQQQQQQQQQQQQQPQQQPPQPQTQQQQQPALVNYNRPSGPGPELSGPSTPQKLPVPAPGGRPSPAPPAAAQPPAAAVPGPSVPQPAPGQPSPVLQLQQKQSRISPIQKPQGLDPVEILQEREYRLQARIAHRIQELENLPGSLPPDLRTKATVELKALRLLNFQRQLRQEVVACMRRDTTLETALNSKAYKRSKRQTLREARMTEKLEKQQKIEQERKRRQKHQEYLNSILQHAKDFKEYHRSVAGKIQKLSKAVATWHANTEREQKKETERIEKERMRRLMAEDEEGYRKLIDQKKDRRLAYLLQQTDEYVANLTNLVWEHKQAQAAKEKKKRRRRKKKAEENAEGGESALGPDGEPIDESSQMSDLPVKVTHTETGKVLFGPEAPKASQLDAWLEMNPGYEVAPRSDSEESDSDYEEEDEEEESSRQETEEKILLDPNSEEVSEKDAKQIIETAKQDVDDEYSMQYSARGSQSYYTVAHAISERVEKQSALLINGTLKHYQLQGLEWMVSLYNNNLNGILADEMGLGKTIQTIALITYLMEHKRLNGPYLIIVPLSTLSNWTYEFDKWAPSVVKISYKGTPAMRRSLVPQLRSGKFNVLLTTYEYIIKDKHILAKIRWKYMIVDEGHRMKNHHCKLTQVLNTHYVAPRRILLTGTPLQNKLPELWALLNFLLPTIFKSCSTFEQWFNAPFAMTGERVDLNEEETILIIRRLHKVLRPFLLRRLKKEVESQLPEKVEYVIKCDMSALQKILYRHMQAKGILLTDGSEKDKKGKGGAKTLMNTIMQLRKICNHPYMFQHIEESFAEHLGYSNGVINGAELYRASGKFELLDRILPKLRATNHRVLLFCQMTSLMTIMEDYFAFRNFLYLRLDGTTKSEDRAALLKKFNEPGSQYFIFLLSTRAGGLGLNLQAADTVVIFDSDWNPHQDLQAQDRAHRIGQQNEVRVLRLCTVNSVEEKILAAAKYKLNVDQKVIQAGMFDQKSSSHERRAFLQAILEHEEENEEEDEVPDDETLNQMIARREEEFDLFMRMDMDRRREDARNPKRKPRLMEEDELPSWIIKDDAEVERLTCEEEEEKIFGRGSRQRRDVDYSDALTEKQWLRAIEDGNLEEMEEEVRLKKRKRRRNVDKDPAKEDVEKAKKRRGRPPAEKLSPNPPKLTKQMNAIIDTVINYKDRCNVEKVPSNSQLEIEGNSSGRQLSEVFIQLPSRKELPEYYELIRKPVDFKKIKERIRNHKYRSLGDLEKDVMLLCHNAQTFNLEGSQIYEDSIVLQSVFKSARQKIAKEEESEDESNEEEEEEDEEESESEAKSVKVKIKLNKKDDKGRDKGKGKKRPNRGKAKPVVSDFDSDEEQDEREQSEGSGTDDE

DC50 [1] | Dmax [1] | DC50 [2] | Dmax [2] | Compound
< 100 nM | > 75% | < 100 nM | 50 to 75% | O=C1CCC(N2Cc3ccc(N4CCN(Cc5cnc(O[C@H]6CN7c8cc(-c9cccc(F)c9O)nnc8NC[C@@]7(CF)C6)c(F)c5)CC4)cc3C2=O)C(=O)N1 (stereo partly drawn) [Example 70, 3-(6-(4-((5-fluoro-6-(((6aR,8R)-2-(3-fluoro-2-hydroxyphenyl)-6a-(fluoromethyl)-5,6,6a,7,8,9-hexahydropyrrolo[1′,2′:4,5]pyrazino[2,3-c]pyridazin-8-yl)oxy)pyridin-3-yl)methyl)piperazin-1-yl)-1-oxoisoindolin-2-yl)piperidine-2,6-dione]
< 100 nM | > 75% | < 100 nM | 50 to 75% | CC[C@]12CNc3nnc(-c4cccc(F)c4O)cc3N1C[C@H](Oc1cnc(CN3CCN(c4ccc5c(c4)CN([C@H]4CCC(=O)NC4=O)C5=O)CC3)c(C(F)(F)F)c1)C2 [Example 73, (S)-3-(5-(4-((5-(((6aS,8R)-6a-ethyl-2-(3-fluoro-2-hydroxyphenyl)-5,6,6a,7,8,9-hexahydropyrrolo[1′,2′:4,5]pyrazino[2,3-c]pyridazin-8-yl)oxy)-3-(trifluoromethyl)pyridin-2-yl)methyl)piperazin-1-yl)-1-oxoisoindolin-2-yl)piperidine-2,6-dione]
< 100 nM | > 75% | < 100 nM | > 75% | CC[C@]12CNc3nnc(-c4cccc(F)c4O)cc3N1C[C@H](Oc1cnc(CN3CCN(c4ccc5c(c4)CN([C@H]4CCC(=O)NC4=O)C5=O)CC3)c(C)c1)C2 [Example 74, (S)-3-(5-(4-((5-(((6aS,8R)-6a-ethyl-2-(3-fluoro-2-hydroxyphenyl)-5,6,6a,7,8,9-hexahydropyrrolo[1′,2′:4,5]pyrazino[2,3-c]pyridazin-8-yl)oxy)-3-methylpyridin-2-yl)methyl)piperazin-1-yl)-1-oxoisoindolin-2-yl)piperidine-2,6-dione]
< 100 nM | > 75% | 100 to 1000 nM | < 50% | Cc1nc(O[C@H]2CN3c4cc(-c5cccc(F)c5O)nnc4NC[C@@]3(C)C2)nc(C)c1CN1CCN(c2ccc3c(c2)C(=O)N([C@H]2CCC(=O)NC2=O)C3)CC1 [Example 75, (S)-3-(6-(4-((2-(((6aR,8R)-2-(3-fluoro-2-hydroxyphenyl)-6a-methyl-5,6,6a,7,8,9-hexahydropyrrolo[1′,2′:4,5]pyrazino[2,3-c]pyridazin-8-yl)oxy)-4,6-dimethylpyrimidin-5-yl)methyl)piperazin-1-yl)-1-oxoisoindolin-2-yl)piperidine-2,6-dione]
< 100 nM | > 75% | < 100 nM | > 75% | C[C@]12CNc3nnc(-c4cccc(F)c4O)cc3N1C[C@H](Oc1cc(C#N)c(CN3CCN(c4ccc5c(c4)C(=O)N([C@H]4CCC(=O)NC4=O)C5)CC3)cn1)C2 [Example 76, 5-((4-(2-((S)-2,6-dioxopiperidin-3-yl)-3-oxoisoindolin-5-yl)piperazin-1-yl)methyl)-2-(((6aS,8R)-2-(3-fluoro-2-hydroxyphenyl)-6a-methyl-5,6,6a,7,8,9-hexahydropyrrolo[1′,2′:4,5]pyrazino[2,3-c]pyridazin-8-yl)oxy)isonicotinonitrile]
< 100 nM | > 75% | < 100 nM | 50 to 75% | C[C@]12CNc3nnc(-c4cccc(F)c4O)cc3N1C[C@H](Oc1cnc(CN3CCN(c4ccc5c(c4)C(=O)N([C@H]4CCC(=O)NC4=O)C5)CC3)cn1)C2 [Example 79, (S)-3-(6-(4-((5-(((6aS,8R)-2-(3-fluoro-2-hydroxyphenyl)-6a-methyl-5,6,6a,7,8,9-hexahydropyrrolo[1′,2′:4,5]pyrazino[2,3-c]pyridazin-8-yl)oxy)pyrazin-2-yl)methyl)piperazin-1-yl)-1-oxoisoindolin-2-yl)piperidine-2,6-dione]
< 100 nM | > 75% | < 100 nM | 50 to 75% | Cc1cc(O[C@H]2CN3c4cc(-c5cccc(F)c5O)nnc4NC[C@]3(C)C2)c(C)nc1CN1CCN(c2ccc3c(c2)C(=O)N([C@H]2CCC(=O)NC2=O)C3)CC1 [Example 80, (S)-3-(6-(4-((5-(((6aS,8R)-2-(3-fluoro-2-hydroxyphenyl)-6a-methyl-5,6,6a,7,8,9-hexahydropyrrolo[1′,2′:4,5]pyrazino[2,3-c]pyridazin-8-yl)oxy)-3,6-dimethylpyridin-2-yl)methyl)piperazin-1-yl)-1-oxoisoindolin-2-yl)piperidine-2,6-dione]
< 100 nM | > 75% | 100 to 1000 nM | < 50% | Cc1cc(O[C@H]2CN3c4cc(-c5cccc(F)c5O)nnc4NC[C@@]3(C)C2)cnc1CN1CCN(c2ccc3c(c2)C(=O)N([C@H]2CCC(=O)NC2=O)C3)CC1 [Example 81, (S)-3-(6-(4-((5-(((6aR,8R)-2-(3-fluoro-2-hydroxyphenyl)-6a-methyl-5,6,6a,7,8,9-hexahydropyrrolo[1′,2′:4,5]pyrazino[2,3-c]pyridazin-8-yl)oxy)-3-methylpyridin-2-yl)methyl)piperazin-1-yl)-1-oxoisoindolin-2-yl)piperidine-2,6-dione]

Continued, molecule first:

Compound | DC50 [1] | Dmax [1] | DC50 [2] | Dmax [2]
CCc1nc(CN2CCN(c3ccc4c(c3)C(=O)N([C@H]3CCC(=O)NC3=O)C4)CC2)cnc1O[C@H]1CN2c3cc(-c4cccc(F)c4O)nnc3NC[C@@]2(CF)C1 [Example 67, (S)-3-(6-(4-((6-ethyl-5-(((6aR,8R)-2-(3-fluoro-2-hydroxyphenyl)-6a-(fluoromethyl)-5,6,6a,7,8,9-hexahydropyrrolo[1′,2′:4,5]pyrazino[2,3-c]pyridazin-8-yl)oxy)pyrazin-2-yl)methyl)piperazin-1-yl)-1-oxoisoindolin-2-yl)piperidine-2,6-dione] | < 100 nM | > 75% | > 1000 nM | < 50%
CCc1nc(CN2CCC(c3ccc4c(c3)C(=O)N([C@H]3CCC(=O)NC3=O)C4)CC2)cnc1O[C@H]1CN2c3cc(-c4cccc(F)c4O)nnc3NC[C@@]2(CF)C1 [Example 68, (S)-3-(6-(1-((6-ethyl-5-(((6aR,8R)-2-(3-fluoro-2-hydroxyphenyl)-6a-(fluoromethyl)-5,6,6a,7,8,9-hexahydropyrrolo[1′,2′:4,5]pyrazino[2,3-c]pyridazin-8-yl)oxy)pyrazin-2-yl)methyl)piperidin-4-yl)-1-oxoisoindolin-2-yl)piperidine-2,6-dione] | < 100 nM | > 75% | > 1000 nM | < 50%
Cc1nc(O[C@H]2CN3c4cc(-c5cccc(F)c5O)nnc4NC[C@]3(CF)C2)c(F)cc1CN1CCN(c2ccc3c(c2)C(=O)N([C@H]2CCC(=O)NC2=O)C3)CC1 [Example 69, (S)-3-(6-(4-((5-fluoro-6-(((6aS,8R)-2-(3-fluoro-2-hydroxyphenyl)-6a-(fluoromethyl)-5,6,6a,7,8,9-hexahydropyrrolo[1′,2′:4,5]pyrazino[2,3-c]pyridazin-8-yl)oxy)-2-methylpyridin-3-yl)methyl)piperazin-1-yl)-1-oxoisoindolin-2-yl)piperidine-2,6-dione] | < 100 nM | > 75% | < 100 nM | > 75%
Cc1c(CN2CCN(c3ccc4c(c3)C(=O)N([C@H]3CCC(=O)NC3=O)C4)CC2)cnc(O[C@H]2CN3c4cc(-c5cccc(F)c5O)nnc4NC[C@@]3(CF)C2)c1F [Example 71, (S)-3-(6-(4-((5-fluoro-6-(((6aR,8R)-2-(3-fluoro-2-hydroxyphenyl)-6a-(fluoromethyl)-5,6,6a,7,8,9-hexahydropyrrolo[1′,2′:4,5]pyrazino[2,3-c]pyridazin-8-yl)oxy)-4-methylpyridin-3-yl)methyl)piperazin-1-yl)-1-oxoisoindolin-2-yl)piperidine-2,6-dione] | < 100 nM | > 75% | > 1000 nM | < 50%
CC[C@@]12CNc3nnc(-c4cccc(F)c4O)cc3N1C[C@H](Oc1cnc(CN3CCN(c4ccc5c(c4)CN([C@H]4CCC(=O)NC4=O)C5)CC3)c(F)c1)C2 [Example 72, (S)-3-(6-(4-((5-(((6aR,8R)-6a-Ethyl-2-(3-fluoro-2-hydroxyphenyl)-5,6,6a,7,8,9-exahydropyrrolo[1′,2′:4,5]pyrazino[2,3-c]pyridazin-8-yl)oxy)-3-fluoropyridin-2-yl)methyl)piperazin-1-yl)-1-oxoisoindolin-2-yl)piperidine-2,6-dione] | < 100 nM | > 75% | 100 to 1000 nM | < 50%
Cc1nc(O[C@H]2CN3c4cc(-c5cccc(F)c5O)nnc4NC[C@@]3(C)C2)ncc1CN1CCC(c2ccc3c(c2)C(=O)N([C@H]2CCC(=O)NC2=O)C3)CC1 [Example 77, (S)-3-(6-(1-((2-(((6aR,8R)-2-(3-fluoro-2-hydroxyphenyl)-6a-methyl-5,6,6a,7,8,9-hexahydropyrrolo[1′,2′:4,5]pyrazino[2,3-c]pyridazin-8-yl)oxy)-4-methylpyrimidin-5-yl)methyl)piperidin-4-yl)-1-oxoisoindolin-2-yl)piperidine-2,6-dione] | < 100 nM | > 75% | > 1000 nM | < 50%
Cc1nc(O[C@H]2CN3c4cc(-c5cccc(F)c5O)nnc4NC[C@@]3(C)C2)nc(C)c1CN1CCC(c2ccc3c(c2)C(=O)N([C@H]2CCC(=O)NC2=O)C3)CC1 [Example 78, (S)-3-(6-(1-((2-(((6aR,8R)-2-(3-fluoro-2-hydroxyphenyl)-6a-methyl-5,6,6a,7,8,9-hexahydropyrrolo[1′,2′:4,5]pyrazino[2,3-c]pyridazin-8-yl)oxy)-4,6-dimethylpyrimidin-5-yl)methyl)piperidin-4-yl)-1-oxoisoindolin-2-yl)piperidine-2,6-dione] | < 100 nM | > 75% | > 1000 nM | < 50%
